One compound from patent publication US10765674B2, “Prevention of HIV-infection” (Janssen Sciences Ireland Unlimited Company, priority 2005, dated 2020) can be followed below.

A value given as a limit tells only on which side of the number the result lay.

The nature of this data set: Tissue concentrations of TMC278 in beagle dog (biopsy on day 232) after single intramuscular administration. It is filed as in vivo, beagle dogs. To be noted: dog No. 16924, day 232 after single IM 2.5 mg/kg, aqueous 30% DMA/50% PEG400 solution; for concentration at 232 day: male, beagle, intramuscular. As for the experimental part: On day 232 post-dose, a biopsy was performed (dog No. 16924 only) on the iliac lymph node (at the side of injection), on a muscle from the non-injected hind leg and on a muscle at the side of injection after ultrasonographic examination. All tissue samples were protected from light as much as possible and stored on melting ice. All samples were protected from light and stored at ≤−18° C. Finally, an additional blood sample was collected on day 272. This sample was processed and analysed similarly to the other blood samples. The concentration of TMC278 in dog tissue samples was also determined by a qualified research LC-MS/MS method. Tissues samples were homogenized with a 10-fold dilution in Milli-Q water by means of an Ultra-Turrax. The tissue homogenates (200 μl aliquot) were extracted by adding of 600 μl methanol (containing […]). After vortexing and centrifugation, the supernatant was transferred to an HPLC vial and 20 μl aliquots were injected. The LC and the MS conditions were the same as described above. The lower limit of quantification was 10.0 ng/g tissue. Samples were protected from light during the bioanalytical analysis.

Setting [1] is: muscle at the side of injection.
Setting [2] is: muscle from the non-injected hind leg.

For `Cc1cc(C=CC#N)cc(C)c1Nc1ccnc(Nc2ccc(C#N)cc2)n1` [TMC278, 4-[[4-[[4-(2-cyanoethenyl)-2,6-dimethylphenyl]amino]-2-pyrimidinyl]-amino]benzonitrile], the concentration at 232 day by setting is: (iliac lymph node at the side of injection) 72.6 ng/g; under setting [1], below 10 ng/g; under setting [2], below 10 ng/g. Moreover, the tissue concentration is recorded as below 10.0 ng/g under setting [1] and below 10.0 ng/g under setting [2].
